Like-named read-outs stand apart in the source and are kept apart here. Non-standard residues stand in square brackets, D forms with d. Residues, ends and D or L forms follow the SMILES beside them. *: point of attachment. Myristoyl = CCCCCCCCCCCCCC(=O)*; Lauroyl = CCCCCCCCCCCC(=O)*; Decanoyl = CCCCCCCCCC(=O)*; Octanoyl = CCCCCCCC(=O)*; Hexanoyl = CCCCCC(=O)*
How the values were obtained:
[1] = Hydrophobicity by analytical RP-HPLC (%B at elution); type: physicochemical; conditions: chromatographic, analytical reversed-phase HPLC, Waters Symmetry C18 5 μm 4.6 × 250 mm; A: H2O + 0.1% TFA, B: 90:10 ACN-H2O + 0.1% TFA
Description: Peptide purity was determined as described previously by analytical RP-HPLC using a Waters 717 plus Autosampler, In-line Degasser AF, 600 Controller, and 2996 Photodiode Array Detector; the column used was a Waters Symmetry C18 column (5 μm, 4.6 mm × 250 mm, Milford, MA, USA). An aqueous acetonitrile (ACN) gradient with 0.1% TFA added (mixing eluent A: H2O + 0.1% TFA and eluent B: 90:10 ACN-H2O + 0.1% TFA) was employed using milli-Q water. Preparative RP-HPLC was performed by using a Waters XSelect Peptide CSH C18 OBDTM column (5 μm, 19 mm × 250 mm, Milford, MA, USA) with the same eluents as for analytical HPLC.
*Hydrophobicity as indicated by the percentage of mobile phase B (%B) at the peak elution time on analytical

[2] = test system: A. baumannii (ATCC 19606); type: cell-based, Acinetobacter baumannii; conditions: A. baumannii ATCC 19606, MHB-II, 37 °C, 18–24 h, triplicate
Description: (§1) The following bacteria were grown in cation-adjusted Muller-Hinton broth at 37 °C with shaking: A. baumannii (ATCC 19606), E. coli (ATCC 25922), K. pneumoniae (ATCC 13883), P. aeruginosa (ATCC 27853), and S. aureus (ATCC 29213).
(§2) The MIC experiments were performed in triplicate, as described in Jensen et al.. Briefly, all peptide stock solutions were prepared by dissolving each peptide in Milli-Q water to obtain a concentration of 10 mg/mL. A bacterial concentration of 10^6 CFU/mL was obtained through the dilution of an overnight culture (MHB-II medium). When the overnight culture was prepared, the OD was measured using a spectrophotometer and when an OD value between 0.2 and 0.4 was obtained, the culture was diluted to OD = 0.002. The MIC determination was carried out in 96-well polypropylene microtitre plates. […] A final bacterial inoculum of 5 × 10^5 CFU/mL per well was obtained by adding 50 μL bacterial suspension to the microtiter plates. The plates were incubated at 37 °C for 18–24 h. To verify the CFU, 10 μL of bacteria suspension was transferred to 990 μL 0.9 % saline solution, from which a 10-fold dilution was carried out. Then, 100 μL of the dilution was plated on an LB plate and left for bacterial growth overnight at 37 °C. Colistin and vancomycin were used as the positive controls.

[3] = test system: K. pneumoniae (ATCC 13883); type: cell-based, Klebsiella pneumoniae; conditions: K. pneumoniae ATCC 13883, MHB-II, 37 °C, 18–24 h, triplicate
Description: as §1, §2

S. aureus (ATCC 29213) = experiment: MIC determination, broth microdilution; type: cell-based, Staphylococcus aureus; conditions: S. aureus ATCC 29213, MHB-II, 37 °C, 18–24 h, triplicate
Description: as §1, §2

[4] = test system: P. aeruginosa (ATCC 27853); type: cell-based, Pseudomonas aeruginosa; conditions: P. aeruginosa ATCC 27853, MHB-II, 37 °C, 18–24 h, triplicate
Description: as §1, §2

human erythrocytes = conditions: 150 μM peptide; 0.5% (v/v) red blood cell suspension in PBS, 1 h at 37 °C, absorbance 414 nm; melittin positive control, PBS negative control; three wells
Description: PBS served as the negative control and 5 μM melittin served as the positive control. All melittin solutions were prepared in Protein LoBind Eppendorf tubes to prevent the adsorption of melittin to the inner surface of the tubes.
Preparation of peptide solutions and melittin: A 5 μM melittin solution in PBS was prepared the day before the hemolysis experiment. First, 150 μL of this solution was transferred to each of the positive control wells and stored in the fume hood to coat the wells. On the day of the experiment, the melittin solution was discarded and the wells were washed with 3 × PBS. A 2.5 μM melittin solution in PBS was prepared and 75 μL was transferred to the wells. PBS (150 μL) was used as the negative control. A solution of each peptide was prepared by dissolving the peptide in 0.5 mL PBS to obtain a concentration of 300 μM. Each peptide solution (150 μL) was transferred to the wells in three wells each in row A, and the plate was diluted down.
Preparation of the red blood cell suspension: 1 mL of type O- whole blood in citrate was transferred to a cryotube. The whole blood was washed with 3 × PBS; adding 3, 3, and 4 mL of PBS, respectively. In between, the blood was centrifuged for 8 min (3000, 3000, and 4000 rpm, respectively) and the supernatant was removed after each centrifugation. A 0.5% (v/v) blood suspension was prepared by adding 40 μL of the washed blood cells to 8 mL of PBS. Then, 75 μL of the red blood cell suspension was transferred to each well and mixed gently. The plate was sealed and incubated for 1 h at 37 °C. After incubation, the plate was centrifuged at 4000 rpm for 10 min. Afterwards, 60 μL of the supernatant from each well was quickly transferred to an ELISA plate.
The absorbance was determined at 414 nm, and Equation (1) below was used to calculate the hemolytic activity of the peptides.

E. coli (ATCC 25922) = type: cell-based, Escherichia coli; conditions: E. coli ATCC 25922, MHB-II, 37 °C, 18–24 h, triplicate
Description: as §1, §2

Structure (SMILES) | %B (hydrophobicity: percentage of mobile phase B at the peak elution time) [1] | MIC AB ([2]; inoculum 5 × 10^5 CFU/mL) | MIC AB ([2]; value in brackets) | MIC KP ([3]; inoculum 5 × 10^5 CFU/mL) | MIC KP ([3]; value in brackets) | MIC SA (S. aureus (ATCC 29213); inoculum 5 × 10^5 CFU/mL) | MIC SA (S. aureus (ATCC 29213); value in brackets) | MIC PA ([4]; inoculum 5 × 10^5 CFU/mL) | MIC PA ([4]; value in brackets) | % hemolysis of human erythrocytes (human erythrocytes) | MIC EC (E. coli (ATCC 25922); inoculum 5 × 10^5 CFU/mL) | MIC EC (E. coli (ATCC 25922); value in brackets)
CCCCCC(=O)N[C@H](CCCCN)C(=O)N[C@H](CCCCN)C(=O)N[C@H](CC(C)C)C(=O)N[C@H](Cc1ccccc1)C(=O)N[C@H](CCCCN)C(=O)N[C@H](CCCCN)C(=O)N[C@@H](C(=O)N[C@H](CC(C)C)C(=O)N[C@H](CCCNC(=N)N)C(=O)N[C@H](Cc1ccc(O)cc1)C(=O)N[C@H](CC(C)C)C(N)=O)[C@H](C)CC [compound 2] (Hexanoyl-[dK][dK][dL][dF][dK][dK][dI][dL][dR][dY][dL]-NH2) | 67.9 %B | 4 µg/mL | 2.6 µM | 8 µg/mL | 5.2 µM | 64 µg/mL | 41.4 µM | 32 µg/mL | 20.7 µM | 100% | 8 µg/mL | 5.2 µM
CCCCCCCC(=O)N[C@H](CCCCN)C(=O)N[C@H](CCCCN)C(=O)N[C@H](CC(C)C)C(=O)N[C@H](Cc1ccccc1)C(=O)N[C@H](CCCCN)C(=O)N[C@H](CCCCN)C(=O)N[C@@H](C(=O)N[C@H](CC(C)C)C(=O)N[C@H](CCCNC(=N)N)C(=O)N[C@H](Cc1ccc(O)cc1)C(=O)N[C@H](CC(C)C)C(N)=O)[C@H](C)CC [compound 3] (Octanoyl-[dK][dK][dL][dF][dK][dK][dI][dL][dR][dY][dL]-NH2) | 64.1 %B | 4 µg/mL | 2.5 µM | 8 µg/mL | 5.1 µM | – | 40.1 µM | 32 µg/mL | 20.3 µM | 100% | 16 µg/mL | 10.2 µM
CCCCCCCCCC(=O)N[C@H](CCCCN)C(=O)N[C@H](CCCCN)C(=O)N[C@H](CC(C)C)C(=O)N[C@H](Cc1ccccc1)C(=O)N[C@H](CCCCN)C(=O)N[C@H](CCCCN)C(=O)N[C@@H](C(=O)N[C@H](CC(C)C)C(=O)N[C@H](CCCNC(=N)N)C(=O)N[C@H](Cc1ccc(O)cc1)C(=O)N[C@H](CC(C)C)C(N)=O)[C@H](C)CC [compound 4] (Decanoyl-[dK][dK][dL][dF][dK][dK][dI][dL][dR][dY][dL]-NH2) | 85.0 %B | 32 µg/mL | 20.0 µM | 32 µg/mL | 20.0 µM | 32 µg/mL | 20.0 µM | 32 µg/mL | 20.0 µM | 100% | 32 µg/mL | 20.0 µM
CCCCCCCCCCCC(=O)N[C@H](CCCCN)C(=O)N[C@H](CCCCN)C(=O)N[C@H](CC(C)C)C(=O)N[C@H](Cc1ccccc1)C(=O)N[C@H](CCCCN)C(=O)N[C@H](CCCCN)C(=O)N[C@@H](C(=O)N[C@H](CC(C)C)C(=O)N[C@H](CCCNC(=N)N)C(=O)N[C@H](Cc1ccc(O)cc1)C(=O)N[C@H](CC(C)C)C(N)=O)[C@H](C)CC [compound 5] (Lauroyl-[dK][dK][dL][dF][dK][dK][dI][dL][dR][dY][dL]-NH2) | 90.5 %B | 64 µg/mL | 39.2 µM | 64 µg/mL | 39.2 µM | 64 µg/mL | 39.2 µM | 64 µg/mL | 39.2 µM | 100% | 64 µg/mL | 39.2 µM
CCCCCCCCCCCCCC(=O)N[C@H](CCCCN)C(=O)N[C@H](CCCCN)C(=O)N[C@H](CC(C)C)C(=O)N[C@H](Cc1ccccc1)C(=O)N[C@H](CCCCN)C(=O)N[C@H](CCCCN)C(=O)N[C@@H](C(=O)N[C@H](CC(C)C)C(=O)N[C@H](CCCNC(=N)N)C(=O)N[C@H](Cc1ccc(O)cc1)C(=O)N[C@H](CC(C)C)C(N)=O)[C@H](C)CC [compound 6] (Myristoyl-[dK][dK][dL][dF][dK][dK][dI][dL][dR][dY][dL]-NH2) | 96.5 %B | > 64 µg/mL | > 38.6 µM | > 64 µg/mL | > 38.6 µM | > 64 µg/mL | – | > 64 µg/mL | > 38.6 µM | 100% | > 64 µg/mL | > 38.6 µM
CC[C@@H](C)[C@@H](NC(=O)[C@@H](CCCCN)NC(=O)[C@@H](CCCCN)NC(=O)[C@@H](Cc1ccccc1)NC(=O)[C@@H](CC(C)C)NC(=O)[C@@H](CCCCN)NC(=O)[C@H](N)CCCCN)C(=O)N[C@H](CC(C)C)C(=O)N1CCCC[C@H](C(N)=O)NC(=O)[C@@H](Cc2ccc(O)cc2)NC(=O)[C@@H](CCCNC(=N)N)NC(=O)C1 [compound 7] | 44.1 %B | > 64 µg/mL | > 42.6 µM | > 64 µg/mL | > 42.6 µM | > 64 µg/mL | > 42.6 µM | > 64 µg/mL | > 42.6 µM | 3% | > 64 µg/mL | > 42.6 µM
CC[C@@H](C)[C@H]1NC(=O)CN(C(=O)[C@@H](CCCCN)NC(=O)[C@@H](CCCCN)NC(=O)[C@@H](Cc2ccccc2)NC(=O)[C@@H](CC(C)C)NC(=O)[C@@H](CCCCN)NC(=O)[C@H](N)CCCCN)CCCC[C@H](C(N)=O)NC(=O)[C@@H](Cc2ccc(O)cc2)NC(=O)[C@@H](CCCNC(=N)N)NC(=O)[C@@H](CC(C)C)NC1=O [compound 9] | 46.6 %B | > 64 µg/mL | > 42.6 µM | > 64 µg/mL | > 42.6 µM | > 64 µg/mL | > 42.6 µM | > 64 µg/mL | > 42.6 µM | 3% | > 64 µg/mL | > 42.6 µM
CCCCCCCCCC(=O)N[C@H](CCCCN)C(=O)N[C@H](CCCCN)C(=O)N[C@H](CC(C)C)C(=O)N[C@H](Cc1ccccc1)C(=O)N[C@H](CCCCN)C(=O)N[C@H](CCCCN)C(=O)N[C@@H](C(=O)N[C@H](CC(C)C)C(=O)N1CCCC[C@H](C(N)=O)NC(=O)[C@@H](Cc2ccc(O)cc2)NC(=O)[C@@H](CCCNC(=N)N)NC(=O)C1)[C@H](C)CC [compound 10] | 62.7 %B | 4 µg/mL | 2.4 µM | 8 µg/mL | 4.8 µM | 4 µg/mL | 2.4 µM | 4 µg/mL | 2.4 µM | 81% | 4 µg/mL | 2.4 µM

Source: PMC9404711 (Antibiotics, 2022)
